According to BindingDB's records for patent US11299488 (Bristol-Myers Squibb Company, 2022):

The compounds below were run against Rho-associated protein kinase 2 (Homo sapiens, UniProt O75116) (assay: In Vitro Assay).
Experimental: The effectiveness of compounds of the present invention as ROCK inhibitors can be determined in a 30 μL assay containing 20 mM HEPES, pH 7.5, 20 mM MgCl2, 0.015% Brij-35, 4 mM DTT, 5 μM ATP and 1.5 μM peptide substrate (FITC-AHA-AKRRRLSSLRA-OH) (SEQ ID No. 1). Compounds were dissolved in DMSO so that the final concentration of DMSO was <2%, and the reaction was initiated with Rho kinase variants. After incubation, the reaction was terminated by the addition of EDTA and the phosphorylated and non-phosphorylated peptides separated using a LABCHIP 3000 Reader (Caliper Life Sciences). […] Compounds were tested in dose-response format, and the inhibition of kinase activity was calculated at each concentration of compound. The inhibition data were fit using a curve-fitting program to determine the IC50; i.e., the concentration of compound required to inhibit 50% of kinase activity.

Rho-associated protein kinase 2, sequence (O75116 whole entry): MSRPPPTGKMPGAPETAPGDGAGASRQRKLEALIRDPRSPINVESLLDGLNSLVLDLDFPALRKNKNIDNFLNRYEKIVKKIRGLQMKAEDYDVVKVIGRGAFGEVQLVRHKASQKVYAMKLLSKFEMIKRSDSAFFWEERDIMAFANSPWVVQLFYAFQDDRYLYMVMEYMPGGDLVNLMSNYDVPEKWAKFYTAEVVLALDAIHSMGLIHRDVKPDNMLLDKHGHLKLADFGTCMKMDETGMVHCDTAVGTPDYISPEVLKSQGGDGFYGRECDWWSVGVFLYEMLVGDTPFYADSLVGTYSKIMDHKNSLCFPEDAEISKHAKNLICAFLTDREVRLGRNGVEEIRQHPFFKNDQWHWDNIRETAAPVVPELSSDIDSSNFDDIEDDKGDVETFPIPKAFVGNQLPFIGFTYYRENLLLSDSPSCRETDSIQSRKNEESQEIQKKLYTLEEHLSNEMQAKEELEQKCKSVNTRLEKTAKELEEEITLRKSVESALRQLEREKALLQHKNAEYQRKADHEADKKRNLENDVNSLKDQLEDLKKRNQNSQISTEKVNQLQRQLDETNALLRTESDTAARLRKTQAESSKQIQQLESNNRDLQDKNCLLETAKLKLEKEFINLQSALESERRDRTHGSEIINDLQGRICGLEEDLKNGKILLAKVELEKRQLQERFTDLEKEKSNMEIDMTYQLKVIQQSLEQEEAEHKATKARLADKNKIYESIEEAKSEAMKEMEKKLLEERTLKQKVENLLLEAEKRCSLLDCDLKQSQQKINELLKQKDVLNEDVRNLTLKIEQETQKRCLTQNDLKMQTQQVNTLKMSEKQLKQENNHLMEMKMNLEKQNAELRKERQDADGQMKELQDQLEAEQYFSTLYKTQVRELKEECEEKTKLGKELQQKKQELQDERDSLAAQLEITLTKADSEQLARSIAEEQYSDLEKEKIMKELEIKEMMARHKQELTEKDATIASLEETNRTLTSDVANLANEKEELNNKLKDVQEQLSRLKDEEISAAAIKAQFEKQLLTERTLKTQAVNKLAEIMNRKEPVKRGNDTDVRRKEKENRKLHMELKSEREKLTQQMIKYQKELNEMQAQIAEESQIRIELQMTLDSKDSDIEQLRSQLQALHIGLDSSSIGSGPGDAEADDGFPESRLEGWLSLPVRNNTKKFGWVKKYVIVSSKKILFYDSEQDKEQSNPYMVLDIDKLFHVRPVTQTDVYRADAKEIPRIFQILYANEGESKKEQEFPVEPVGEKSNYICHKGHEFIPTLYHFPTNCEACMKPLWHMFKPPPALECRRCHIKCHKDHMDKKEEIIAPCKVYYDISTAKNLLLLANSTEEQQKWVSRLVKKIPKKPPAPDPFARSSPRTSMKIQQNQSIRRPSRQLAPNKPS

Point of comparison: NC(=O)c1cccnc1O[C@H]1CC2(C[C@H](Nc3nc4c(Cl)cc(Cl)cc4s3)C2)C1 (some centres not stated) [US11299488, Example 5], IC50 105 nM. Against it:
- NC(=O)c1cccnc1O[C@H]1CC2(C[C@H](Nc3nc4c(Cl)cccc4s3)C2)C1 (some centres not stated) [US11299488, Example 4] — within 1.5-fold, 76 nM
- NC(=O)c1cccnc1O[C@H]1CC2(C[C@H](Nc3nc4c(F)cc(Cl)cc4s3)C2)C1 (some centres not stated) [US11299488, Example 7] — 3.8-fold higher, 396 nM
- NC(=O)c1cccnc1O[C@H]1CC2(C[C@H](Nc3nc(-c4ccc(Cl)cc4)cs3)C2)C1 (some centres not stated) [US11299488, Example 9] — 31-fold higher, 3300 nM
- NC(=O)c1cccnc1O[C@H]1CC2(C[C@H](Nc3nc(-c4ccccc4Cl)cs3)C2)C1 (some centres not stated) [US11299488, Example 10] — 16-fold higher, 1700 nM
- COc1cnc(N[C@H]2CC3(C2)C[C@H](Oc2ncccc2C(N)=O)C3)c2cc(Cl)ccc12 (some centres not stated) [US11299488, Example 27] — 7-fold lower, 15 nM
- NC(=O)c1cccnc1O[C@H]1CC2(C[C@H](Nc3nccc(N4CCCC(F)(F)C4)n3)C2)C1 (some centres not stated) [US11299488, Example 36] — 1.7-fold higher, 175 nM
